Tested on: platelets
Experiment: Example 4: light transmission aggregometry (LTA) induced by 5 and 20 μM ADP
Assay type: in vivo, human
Method: The study involved 12 patients who met the criteria of being 18-75 years of age, having coronary artery disease (CAD) documented by a previous MI or coronary revascularization, and taking 81 mg of aspirin daily. […] Prohibited concomitant medications included strong and potent CYP3A inhibitors, simvastatin and lovastatin at doses more than 40 mg/day, omeprazole or esomeprazole, and digoxin. Use of non-steroidal anti-inflammatory agents was discouraged during study participation but not prohibited.
Each patient was administered a 30 μg/kg bolus of cangrelor followed immediately by a 2 hr infusion at a rate of 4.0 μg/kg/min. A loading dose of ticagrelor (180 mg) was given after 0.5 hr or 1.25 hr (n=6 for each). Blood for pharmacodynamic platelet function studies was taken after 0.5 or 1.25 hr (corresponding to the time of ticagrelor load, n=6 for each), and then at 1.75, 2, 2.25, 2.5, 2.75, 3, 4, and 5.25 hr. Patients were assigned randomly to receive either 6 (n=6) or 7 (n=6) doses of ticagrelor to be taken every 12 hours following the discontinuation of the infusion of cangrelor. On study day 5, each patient was administered a 30 μg/kg bolus of cangrelor followed immediately by a 2 hr infusion at a rate of 4.0 μg/kg/min. Blood for pharmacodynamic assessment was taken after 1 and 2 hr. Adverse events were queried throughout study participation that ended with a telephone interview performed on study day 10-12.
Pharmacodynamic assessment included light transmission aggregometry (LTA), VerifyNow® P2Y12 assay, vasodilator-stimulated phosphoprotein (VASP) index, and platelet activation measured with the use of flow cytometry. Assessment of LTA, VerifyNow®, and platelet activation with the use of flow cytometry was performed within 30 min of blood being taken. In the case of flow cytometry, samples were processed to fixation and then batched for analysis. For VASP, index samples were batched and processed as recommended by the vendor within 2 h of blood being taken. This approach limited the time from fixation of VASP index to flow analysis to less than 1 h.
LTA induced by 5 μM and 20 μM adenosine diphosphate (ADP) was quantified ex vivo (i.e. in non-adjusted platelet rich plasma). Platelet-poor plasma was set as 100% aggregation, and both maximal (peak) and terminal (at 300 s) aggregation were measured with a PAP4 aggregometer (BioData, Horsham, Pa.). VerifyNow® P2Y12 assay (Accumetrics Inc, San Diego, Calif.) that measures the effects of drugs on the P2Y12 receptor by activating platelets with prostaglandin El in addition to ADP was used in accordance with the instructions provided by the manufacturer. Platelet reactivity was expressed in P2Y12 reaction units (PRU). Activation of platelets was identified with the use of flow cytometry as previously described.^17. And to determine the VASP index, a commercially available kit (Diagnostica Stago, Inc, Parsippany NJ) was used. ^17 Schneider D J, Sobel B E. Streamlining the design of promising clinical trials: in-vitro testing of antithrombotic regimens and multiple agonists of platelet activation. Coron Artery Dis. 2009; 20:175-8.

[1] = reference 5.25 h, Ticagrelor at 0.5 h
[2] = reference 5.25 h, Ticagrelor at 1.25 h
[3] = ticagrelor at 0.5 hr, 1.75 hr later (at 2.25 hr)
[4] = ticagrelor at 1.25 hr, 1.75 hr after the loading dose (at 3.0 hr)

SMILES: CCCSc1nc(N[C@@H]2C[C@H]2c2ccc(F)c(F)c2)c2nnn([C@@H]3C[C@H](OCCO)[C@@H](O)[C@H]3O)c2n1 [ticagrelor]
- IPA, 5 μM ADP, LTA (2.25 h, All): 87 ± 8%
- IPA, 20 μM ADP, LTA (2.25 h, All): 83 ± 14%
- PR, 5 μM ADP, LTA (2.25 h, All): 7 ± 5%
- PR, 20 μM ADP, LTA (2.25 h, All): 12 ± 11%
- IPA, 5 μM ADP, LTA (2.25 h, Ticagrelor at 0.5 h): 84 ± 10%
- IPA, 20 μM ADP, LTA (2.25 h, Ticagrelor at 0.5 h): 82 ± 13%
- PR, 5 μM ADP, LTA (2.25 h, Ticagrelor at 0.5 h): 7.7 ± 5.9%
- PR, 20 μM ADP, LTA (2.25 h, Ticagrelor at 0.5 h): 13 ± 9.3%
- IPA, 5 μM ADP, LTA (2.25 h, Ticagrelor at 1.25 h): 89 ± 5%
- IPA, 20 μM ADP, LTA (2.25 h, Ticagrelor at 1.25 h): 84 ± 17%
- PR, 5 μM ADP, LTA (2.25 h, Ticagrelor at 1.25 h): 5.3 ± 3.6%
- PR, 20 μM ADP, LTA (2.25 h, Ticagrelor at 1.25 h): 11 ± 12%
- IPA, 5 μM ADP, LTA (2.5 h, All): 79 ± 15%
- IPA, 20 μM ADP, LTA (2.5 h, All): 72 ± 26%
- PR, 5 μM ADP, LTA (2.5 h, All): 10 ± 7%
- PR, 20 μM ADP, LTA (2.5 h, All): 19 ± 16%
- IPA, 5 μM ADP, LTA (2.5 h, Ticagrelor at 0.5 h): 82 ± 13%
- IPA, 20 μM ADP, LTA (2.5 h, Ticagrelor at 0.5 h): 78 ± 21%
- PR, 5 μM ADP, LTA (2.5 h, Ticagrelor at 0.5 h): 10 ± 5.7%
- PR, 20 μM ADP, LTA (2.5 h, Ticagrelor at 0.5 h): 16 ± 15%
- IPA, 5 μM ADP, LTA (2.5 h, Ticagrelor at 1.25 h): 76 ± 18%
- IPA, 20 μM ADP, LTA (2.5 h, Ticagrelor at 1.25 h): 65 ± 30%
- PR, 5 μM ADP, LTA (2.5 h, Ticagrelor at 1.25 h): 11 ± 9%
- PR, 20 μM ADP, LTA (2.5 h, Ticagrelor at 1.25 h): 21 ± 17%
- IPA, 5 μM ADP, LTA (2.75 h, All): 86 ± 11%
- IPA, 20 μM ADP, LTA (2.75 h, All): 86 ± 15%
- PR, 5 μM ADP, LTA (2.75 h, All): 5.8 ± 3%
- PR, 20 μM ADP, LTA (2.75 h, All): 10 ± 9.2%
- IPA, 5 μM ADP, LTA (2.75 h, Ticagrelor at 0.5 h): 87 ± 7%
- IPA, 20 μM ADP, LTA (2.75 h, Ticagrelor at 0.5 h): 84 ± 15%
- PR, 5 μM ADP, LTA (2.75 h, Ticagrelor at 0.5 h): 6.7 ± 4.1%
- PR, 20 μM ADP, LTA (2.75 h, Ticagrelor at 0.5 h): 12 ± 11%
- IPA, 5 μM ADP, LTA (2.75 h, Ticagrelor at 1.25 h): 85 ± 15%
- IPA, 20 μM ADP, LTA (2.75 h, Ticagrelor at 1.25 h): 87 ± 15%
- PR, 5 μM ADP, LTA (2.75 h, Ticagrelor at 1.25 h): 4.8 ± 0.8%
- PR, 20 μM ADP, LTA (2.75 h, Ticagrelor at 1.25 h): 7.8 ± 7.2%
- IPA, 5 μM ADP, LTA (3 h, All): 86 ± 17%
- IPA, 20 μM ADP, LTA (3 h, All): 90 ± 9%
- PR, 5 μM ADP, LTA (3 h, All): 5.5 ± 5.2%
- PR, 20 μM ADP, LTA (3 h, All): 7.1 ± 6.3%
- IPA, 5 μM ADP, LTA (3 h, Ticagrelor at 0.5 h): 85 ± 15%
- IPA, 20 μM ADP, LTA (3 h, Ticagrelor at 0.5 h): 87 ± 10%
- PR, 5 μM ADP, LTA (3 h, Ticagrelor at 0.5 h): 8 ± 6.5%
- PR, 20 μM ADP, LTA (3 h, Ticagrelor at 0.5 h): 10 ± 7.6%
- IPA, 5 μM ADP, LTA (3 h, Ticagrelor at 1.25 h): 87 ± 21%
- IPA, 20 μM ADP, LTA (3 h, Ticagrelor at 1.25 h): 93 ± 7%
- PR, 5 μM ADP, LTA (3 h, Ticagrelor at 1.25 h): 3 ± 1.5%
- PR, 20 μM ADP, LTA (3 h, Ticagrelor at 1.25 h): 4.5 ± 3.4%
- IPA, 5 μM ADP, LTA (4 h, All): 88 ± 9%
- IPA, 20 μM ADP, LTA (4 h, All): 94 ± 4%
- PR, 5 μM ADP, LTA (4 h, All): 5.5 ± 3.3%
- PR, 20 μM ADP, LTA (4 h, All): 4.6 ± 3.6%
- IPA, 5 μM ADP, LTA (4 h, Ticagrelor at 0.5 h): 87 ± 5%
- IPA, 20 μM ADP, LTA (4 h, Ticagrelor at 0.5 h): 91 ± 4%
- PR, 5 μM ADP, LTA (4 h, Ticagrelor at 0.5 h): 7.3 ± 3.9%
- PR, 20 μM ADP, LTA (4 h, Ticagrelor at 0.5 h): 6.7 ± 3.7%
- IPA, 5 μM ADP, LTA (4 h, Ticagrelor at 1.25 h): 89 ± 12%
- IPA, 20 μM ADP, LTA (4 h, Ticagrelor at 1.25 h): 96 ± 4%
- PR, 5 μM ADP, LTA (4 h, Ticagrelor at 1.25 h): 3.7 ± 1%
- PR, 20 μM ADP, LTA (4 h, Ticagrelor at 1.25 h): 2.5 ± 1.9%
- residual platelet reactivity (12 hours after the last dose of ticagrelor, study day 5): 12±9%
- residual platelet reactivity (at 2.5 hr, ticagrelor 180 mg given at 0.5 hr of 2 hr cangrelor infusion): 16±15%
- IPA, 5 μM ADP, LTA (reference 5.25 h, All): 94 ± 5%
- IPA, 20 μM ADP, LTA (reference 5.25 h, All): 95 ± 4%
- PR, 5 μM ADP, LTA (reference 5.25 h, All): 3.1 ± 2.8%
- PR, 20 μM ADP, LTA (reference 5.25 h, All): 4 ± 3.4%
- IPA, 5 μM ADP, LTA [1]: 92 ± 6%
- IPA, 20 μM ADP, LTA [1]: 92 ± 4%
- PR, 5 μM ADP, LTA [1]: 4.2 ± 2%
- PR, 20 μM ADP, LTA [1]: 5.8 ± 3.1%
- IPA, 5 μM ADP, LTA [2]: 97 ± 4%
- IPA, 20 μM ADP, LTA [2]: 97 ± 4%
- PR, 5 μM ADP, LTA [2]: 2 ± 2.3%
- PR, 20 μM ADP, LTA [2]: 2.2 ± 2.7%
- extent of inhibition [3]: 82±13%
- residual platelet reactivity [3]: 13±9.3%
- extent of inhibition [4]: 93±7%
- residual platelet reactivity [4]: 4.5±3.4%

From patent publication US8680052B1, “Methods of treating, reducing the incidence of, and/or preventing ischemic events” (The Medicines Company, priority 2013, dated 2014)
